Experimental data as given in article PMC6219560, “An Electroencephalography Bioassay for Preclinical Testing of Analgesic Efficacy” (Scientific Reports, 2018).
Like-named read-outs stand apart in the source and are kept apart here.

Experiments:
rats with CCI = tested on: rats with CCI; set-up: method as in PMID 23489258; conditions: single doses (i.p.), rats with CCI ref 38; cited from earlier work
[1] = cited from earlier work
[2] = tested on: rat model of neuropathic pain (CCI); assay: Thermal hyperalgesia: paw withdrawal latency (PWL) in rats with CCI; type: in vivo
Excerpt: (§1) The sciatic nerve was exposed unilaterally after skin incision at the mid-thigh level and blunt dissection of the biceps under deep anesthesia (isoflurane, 3%). Four chromic gut ligatures were tied loosely around the nerve 1 mm apart, and the overlying muscles and skin were closed in layers with 4–0 Ethilon sutures. A minor modification was introduced, consisting of loose ligatures, to minimize nerve damage and deafferentation. Rats with this slightly modified CCI procedure gradually develop typical signs of sensory hypersensitivity associated with neuropathic pain, such as guarding the affected hind paw and thermal hypersensitivity. […] For CCI sham surgery, the sciatic nerve was similarly exposed but not ligated.
EEG recording was performed first for ~10 min during resting states (no stimulation). The rat was then untethered from the EEG leads and placed in the behavioral apparatus for 15 min acclimation, followed by 5 min PWL testing. Thermal sensitivity of the hindpaw was assessed by measuring the latency of the withdrawal reflex in response to a radiant heat source (Paw withdrawal stimulator, Department of Anesthesiology, University of California, SD). A radiant heat source (4.7 A) was applied to the plantar surface of the hind paw. Paw withdrawal latencies (PWL) in response to 4 thermal stimulations were averaged for each paw. Stimulations to each paw were separated by at least 2 minutes intervals.
(§2) Values regarding theta power and PWL are reported as mean ± SEM and then converted to ratio relative to naive or CCI values for standardized representation of the data. One sample t-test was used for comparison between naïve and CCI, and paired t-test was used for comparison between CCI and after treatment in the same animals, respectively. Values regarding drug plasma concentration are reported as geomean (% of covariance) or range. Correlation analysis was used to compare EEG with PWL values. A P value < 0.05 was considered statistically significant and denoted by asterisk (*) in figures.

[3] = Pharmacokinetics (PK) study: drug plasma concentration in rats by LC-MS/MS; type: in vivo, rat; conditions: for concentration at 30 min: geomean (% coefficient of variation), n = 3
Experimental: Rats (n = 3 per group) were intraperitoneally treated either with 3 or 100 mg/kg of pregabalin, or orally either with 1 or 10 mg/kg of EMA401, or 80 mg/kg of minocycline. At 0.5, 1, and 2 hours after treatment, approximately 150 µL of blood was collected from the jugular vein using a heparinized syringe with a needle. Blood samples were then centrifuged at 1700 g at 4 °C for 10 minutes. Plasma samples were then separated and stored at −20 °C until analysis. Five or 10 μL of plasma samples were diluted with 300 μL of deproteinization solution containing internal standards (5 nM buspirone, 20 nM tolbutamide, 10 nM reserpine in acetonitorile/methanol = 9: 1) and shaken for 5 minutes at room temperature, and centrifuged at 1000 g for 15 minutes. Then, the supernatant was analyzed by LC-MS/MS (Xevo TQ-S Tandem Quadrupole Mass Spectrometry, Waters) for quantification of pregabalin. Data analysis were performed with MassLynx Mass Spectometry Software and TargetLynx Application manager (Waters).

[4] = tested on: rat model of neuropathic pain (CCI); assay: EEG theta power over primary somatosensory cortex in awake rats with CCI; type: in vivo; conditions: for Longitudinal effects on theta power and PWL: single dose 10 mg/kg, n=4
Experimental: These procedures were performed under anesthesia (isoflurane, 2–3.5%). The head was fixed in a stereotaxic apparatus, and skull was exposed after a small skin incision. A stainless steel screw electrode (0–80 ga 1/8 inch, impedance = 0.6 Ω; component Supply Company, Fort Meade, FL) was placed over intact skull (i.e. epicranially) corresponding to primary somatosensory cortex or S1 contralateral to nerve injury (Bregma −2, 2 mm lateral). Minimal craniotomies were used to place 3 stabilization screws (corresponding to Bregma +1.4, 2 mm bilaterally and Bregma −4.8 mm, midline). The EEG screw was threaded with a silver wire and attached to a female miniature pin connector (A&M Systems, Sequim, WA). All screws were anchored to the skull chronically using dental acrylic (Fig. 1B). Signal reference was provided by a silver wire permanently threaded to the skin at the back of the neck.
as §1, with “deafferentation.” for “deafferentation. Rats with this slightly modified CCI procedure gradually develop typical signs of sensory hypersensitivity associated with neuropathic pain, such as guarding the affected hind paw and thermal hypersensitivity.”
Pin connectors from EEG electrode was tethered to preamplifier headstage leading to a multichannel amplifier (iso-DAM8A; WPI Inc, Sarasota, FL). EEG waveforms were amplified (DAM80; World Precision Instruments, Sarasota, FL). […] Rats were allowed to move freely during EEG recording in Plexiglas chambers. After 15 minutes of acclimation, EEG recording was performed. Each EEG recording session was 3 to 5 minutes per animal. […] Only data during awake resting periods (defined as alertness but idle with no locomotor behavior) were further analyzed. Potentials generated due to vigorous myogenic activity (such as scratching) were excluded from analysis. These artifacts can be easily identified on the basis of monitoring the animal’s behavior, voltage amplitude, and spectral frequency typically >30 Hz, and they were further corroborated using an automated artifact detection algorithm recently developed in our laboratory (Supplemental Fig. 3)[59].
Fast Fourier transform was used to convert EEG waveform from the time domain to the frequency domain. Power values were generated in 27 frequency bins between 3 and 30 Hz. Awake resting periods were selected and Fast Fourier transformed, then average PSD was calculated. Mean PSD theta was computed between 4 and 8 Hz (Fig. 1C). Each ‘period’ was a continuous interval between 7 and 20 seconds, and 3–5 periods were averaged to obtain one value for mean theta per condition.
as §2

[5] = cited from earlier work; for Plasma concentration in rat: mean (% coefficient of variation) ref 29; for Plasma concentration in rat (% covariance): mean ref Lau et al.
pain patients = conditions: equivalent human dose High (rat 30 mg/kg i.p.); cited from earlier work
[6] = 10 mg/kg p.o., single administration, d14 after CCI, 0.5 hr, n = 6
[7] = 80 mg/kg p.o., single administration at d14 after CCI, n = 5

Cc1cc(Cn2cnc3c2CC(C(=O)O)N(C(=O)C(c2ccccc2)c2ccccc2)C3)ccc1N(C)C (stereo not shown) [EMA200]
Anti-allodynic effects (rats with CCI): dose-dependent anti-allodynic effects

COc1ccc2c(c1OCc1ccccc1)C[C@@H](C(=O)O)N(C(=O)C(c1ccccc1)c1ccccc1)C2 [EMA400]
Anti-allodynic effects (rats with CCI): dose-dependent anti-allodynic effects

COc1ccc2c(c1OCc1ccccc1)C[C@@H](C(=O)O)N(C(=O)C(c1ccccc1)c1ccccc1)C2 [EMA401]
Corresponding plasma concentration in human: Cmax ([1]; 200 mg/day, mean (% covariance) ref Rice et al.): Therapeutic dose Similar to Cmax of 200 mg/day: 1.01 (65) mg/mL*b [Rice et al.]
Plasma concentration, clinical data ([1]; human ref 18): 1.01 (65) μg/mL
PWL relative to CCI ([2]; 10 mg/kg p.o. daily starting d7 after CCI, day 7): 1.60 ± 0.19
PWL relative to CCI ([2]; 10 mg/kg p.o. daily starting d7 after CCI, day 11): 2.13 ± 0.28
PWL relative to CCI ([2]; 10 mg/kg p.o. daily starting d7 after CCI, day 14): 2.27 ± 0.30
PWL relative to CCI [2, 6]: 1.26 ± 0.11
Distribution ([3]; rat, in vivo): peripherally restricted
Exposure after daily administration ([3]; rat, in vivo, po): not cumulative
Theta power relative to CCI ([4]; 10 mg/kg p.o. daily starting d7 after CCI, day 7, n = 6): 0.76 ± 0.07
Theta power relative to CCI ([4]; 10 mg/kg p.o. daily starting d7 after CCI, day 11, n = 6): 0.77 ± 0.08
Theta power relative to CCI ([4]; 10 mg/kg p.o. daily starting d7 after CCI, day 14, n = 6): 0.87 ± 0.12
Theta power relative to CCI [4, 6]: 0.71 ± 0.13
Longitudinal effects on theta power and PWL ([4]; CCI d7, 30 min after administration): analgesic effects
Longitudinal effects on theta power and PWL ([4]; CCI d7, 2 hours after administration): tendency for reversal

CN(C)c1ccc(O)c2c1C[C@H]1C[C@H]3[C@H](N(C)C)C(O)=C(C(N)=O)C(=O)[C@@]3(O)C(O)=C1C2=O [Minocycline, minocycline]
Corresponding plasma concentration in human: clinical dose ([1]; 200 mg/day, range ref Sumitani et al.): Therapeutic dose (inconclusive) Higher than clinical (200 mg/day) dose: 3.19–4.59 mg/mL*a [Sumitani et al.]
PWL relative to CCI ([2]; 80 mg/kg p.o. daily treatment starting d7 CCI, day 7): 0.91 ± 0.05
PWL relative to CCI ([2]; 80 mg/kg p.o. daily treatment starting d7 CCI, day 10): 1.00 ± 0.08
PWL relative to CCI ([2]; 80 mg/kg p.o. daily treatment starting d7 CCI, day 14): 0.94 ± 0.04
PWL relative to CCI [2, 7]: 1.08 ± 0.10
Theta power relative to CCI ([4]; 80 mg/kg p.o. daily starting d7 CCI, day 11, n = 7): 0.95 ± 0.11
Theta power relative to CCI ([4]; 80 mg/kg p.o. daily starting d7 CCI, day 14, n = 5): 1.37 ± 0.45
Theta power relative to CCI ([4]; 80 mg/kg p.o., d7 after CCI (first of daily doses), n = 7): 0.71 ± 0.06
Theta power relative to CCI [4, 7]: 0.96 ± 0.13

CC(C)C[C@H](CN)CC(=O)O [Pregabalin, pregabalin]
Cmax in humans ([1]; 150 mg/day ref 31): 3.18 (21) μg/mL
Corresponding plasma concentration in human: Cmax ([1]; 150 mg/day ref Chew et al.): Sub-therapeutic dose Similar to Cmax of 150 mg/day: 3.18 (21) mg/mL [Chew et al.]
Cmax in humans ([1]; 300 mg/day ref 31): 6.39 (20) μg/mL
Cmax in humans ([1]; 600 mg/day ref 31): 11.4 (17) μg/mL
Corresponding plasma concentration in human: steady state level ([1]; 600 mg/day, range ref Dworkin et al.): Supra-therapeutic dose Slightly higher than steady state level of 600 mg/day: 0.244–18.6 mg/mL*a [Dworkin et al.]
Steady state level in humans ([1]; 600 mg/day, represented as range ref 33): 0.244 to 18.6 µg/mL
PWL relative to CCI ([2]; 3 mg/kg i.p., single dose, d14 after CCI, 0.5 h, mean ± SEM ratio): 1.42 ± 0.10
PWL relative to CCI ([2]; 10 mg/kg i.p., single dose, d14 after CCI, 0.5 h, mean ± SEM ratio): 1.54 ± 0.08
PWL relative to CCI ([2]; 30 mg/kg i.p., single dose, d14 after CCI, 0.5 h, mean ± SEM ratio): 1.47 ± 0.14
Plasma concentration in rat ([5]; 10 mg/kg i.p., 30 min): 11.3 (4.9) μg/mL
Plasma concentration in rat (% covariance) ([5]; 10 mg/kg, observation time 30 min): 11.3 (4.9)*b mg/mL
Plasma concentration in rat ([5]; 30 mg/kg i.p.): 33.0 (5.4) μg/mL
Plasma concentration in rat (% covariance) ([5]; 30 mg/kg): 33.0 (5.4)*b mg/mL
Linearity of plasma concentration at 30 min ([3]; doses of 3 and 100 mg/kg i.p., compared with previous report (10 and 30 mg/kg)): good linearity
concentration at 30 min ([3]; rat, in vivo, 3 mg/kg i.p.): 3.29 µg/mL
concentration at 30 min ([3]; rat, in vivo, 100 mg/kg i.p.): 99.3 µg/mL
Theta power relative to CCI ([4]; 3 mg/kg i.p., single dose, d14 after CCI, 0.5 h, mean ± SEM ratio, n = 7): 0.91 ± 0.11
Theta power relative to CCI ([4]; 10 mg/kg i.p., single dose, d14 after CCI, 0.5 h, mean ± SEM ratio, n = 7): 0.83 ± 0.12
EEG efficacy (θ power) ([4]; 30 mg/kg (i.p.), pain phase Late): Side effects
Theta power relative to CCI ([4]; 30 mg/kg i.p., single dose, d14 after CCI, 0.5 h, mean ± SEM ratio, n = 7): 1.24 ± 0.29
Clinical efficacy (VAS) (pain patients): Side effects
